In PubChem BioAssay AID1963437 (Molecular Pharmacology Branch, DTP, NCI, 2024):

Tested on: OVCAR-8 complex spheroid, growth inhibition
Experiment: Anticancer human tumor OVCAR-8 cell line growth inhibition [Asc];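 note: spheroids exposed to agents for 7 days before readout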;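 for viability, T/C: percent viability relative to DMSO vehicle wells taken as 100%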
Details: for IC50: curve of first compound; for viability, T/C: stronger effect = lower value
Method in brief: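 Spheroid model: tumor line + HUVEC + hMSC. Single agents and combinations; top conc. at/near clinical Cmax (10 microM if undetermined), half-log dilutions. DMSO stocks at 800-fold test concentration.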

NC(=O)C(=Cn1cnc(-c2cc(C(F)(F)F)cc(C(F)(F)F)c2)n1)c1cncnc1 + Cc1c(S(C)(=O)=O)c(-c2cc(F)cc(N3CCN(c4ccc(NS(=O)(=O)c5ccc(NC(CCN6CCC(C(=O)OCCCP(=O)(O)O)CC6)CSc6ccccc6)c(S(=O)(=O)C(F)(F)F)c5)cc4)CC3)c2)c(-c2ccc(Cl)cc2)n1C(C)C
IC50 (second compound 0.0316 µM): > 300 nM | IC50 (second compound 0.1 µM): > 300 nM | IC50 (second compound 0.316 µM): 219 nM | IC50 (second compound 1 µM): 155 nM | IC50 (second compound 3.16 µM): 131 nM | IC50 (second compound 10 µM): 108 nM | viability, T/C (second compound 0.0316 µM, first compound 0.000949 µM): 107% | viability, T/C (second compound 0.0316 µM, first compound 0.003 µM): 97.1% | viability, T/C (second compound 0.0316 µM, first compound 0.00949 µM): 103% | viability, T/C (second compound 0.0316 µM, first compound 0.03 µM): 114% | viability, T/C (second compound 0.0316 µM, first compound 0.0949 µM): 89.3% | viability, T/C (second compound 0.0316 µM, first compound 0.3 µM): 55.4% | viability, T/C (second compound 0.1 µM, first compound 0.000949 µM): 103% | viability, T/C (second compound 0.1 µM, first compound 0.003 µM): 92.6% | viability, T/C (second compound 0.1 µM, first compound 0.00949 µM): 93.5% | viability, T/C (second compound 0.1 µM, first compound 0.03 µM): 102% | viability, T/C (second compound 0.1 µM, first compound 0.0949 µM): 90.4% | viability, T/C (second compound 0.1 µM, first compound 0.3 µM): 57.6% | viability, T/C (second compound 0.316 µM, first compound 0.000949 µM): 115% | viability, T/C (second compound 0.316 µM, first compound 0.003 µM): 112% | viability, T/C (second compound 0.316 µM, first compound 0.00949 µM): 101% | viability, T/C (second compound 0.316 µM, first compound 0.03 µM): 107% | viability, T/C (second compound 0.316 µM, first compound 0.0949 µM): 90.4% | viability, T/C (second compound 0.316 µM, first compound 0.3 µM): 34.8% | viability, T/C (second compound 1 µM, first compound 0.000949 µM): 119% | viability, T/C (second compound 1 µM, first compound 0.003 µM): 111% | viability, T/C (second compound 1 µM, first compound 0.00949 µM): 114% | viability, T/C (second compound 1 µM, first compound 0.03 µM): 116% | viability, T/C (second compound 1 µM, first compound 0.0949 µM): 73.8% | viability, T/C (second compound 1 µM, first compound 0.3 µM): 18.1% | viability, T/C (second compound 3.16 µM, first compound 0.000949 µM): 109% | viability, T/C (second compound 3.16 µM, first compound 0.003 µM): 104% | viability, T/C (second compound 3.16 µM, first compound 0.00949 µM): 121% | viability, T/C (second compound 3.16 µM, first compound 0.03 µM): 111% | viability, T/C (second compound 3.16 µM, first compound 0.0949 µM): 66.7% | viability, T/C (second compound 3.16 µM, first compound 0.3 µM): 6.92% | viability, T/C (second compound 10 µM, first compound 0.000949 µM): 117% | viability, T/C (second compound 10 µM, first compound 0.003 µM): 115% | viability, T/C (second compound 10 µM, first compound 0.00949 µM): 132% | viability, T/C (second compound 10 µM, first compound 0.03 µM): 127% | viability, T/C (second compound 10 µM, first compound 0.0949 µM): 55.8% | viability, T/C (second compound 10 µM, first compound 0.3 µM): 4.41%

NC1CCC(NC2CC2c2ccccc2)CC1 (centres undefined) + Cc1c(S(C)(=O)=O)c(-c2cc(F)cc(N3CCN(c4ccc(NS(=O)(=O)c5ccc(NC(CCN6CCC(C(=O)OCCCP(=O)(O)O)CC6)CSc6ccccc6)c(S(=O)(=O)C(F)(F)F)c5)cc4)CC3)c2)c(-c2ccc(Cl)cc2)n1C(C)C
IC50 (second compound 0.0316 µM): > 100 nM | IC50 (second compound 0.1 µM): > 100 nM | IC50 (second compound 0.316 µM): > 100 nM | IC50 (second compound 1 µM): > 100 nM | IC50 (second compound 3.16 µM): > 100 nM | IC50 (second compound 10 µM): > 100 nM | viability, T/C (second compound 0.0316 µM, first compound 0.000316 µM): 111% | viability, T/C (second compound 0.0316 µM, first compound 0.001 µM): 109% | viability, T/C (second compound 0.0316 µM, first compound 0.00316 µM): 83.2% | viability, T/C (second compound 0.0316 µM, first compound 0.01 µM): 101% | viability, T/C (second compound 0.0316 µM, first compound 0.0316 µM): 109% | viability, T/C (second compound 0.0316 µM, first compound 0.1 µM): 80.5% | viability, T/C (second compound 0.1 µM, first compound 0.000316 µM): 97.5% | viability, T/C (second compound 0.1 µM, first compound 0.001 µM): 102% | viability, T/C (second compound 0.1 µM, first compound 0.00316 µM): 93.4% | viability, T/C (second compound 0.1 µM, first compound 0.01 µM): 105% | viability, T/C (second compound 0.1 µM, first compound 0.0316 µM): 120% | viability, T/C (second compound 0.1 µM, first compound 0.1 µM): 91.8% | viability, T/C (second compound 0.316 µM, first compound 0.000316 µM): 99.2% | viability, T/C (second compound 0.316 µM, first compound 0.001 µM): 97.3% | viability, T/C (second compound 0.316 µM, first compound 0.00316 µM): 111% | viability, T/C (second compound 0.316 µM, first compound 0.01 µM): 100% | viability, T/C (second compound 0.316 µM, first compound 0.0316 µM): 108% | viability, T/C (second compound 0.316 µM, first compound 0.1 µM): 106% | viability, T/C (second compound 1 µM, first compound 0.000316 µM): 118% | viability, T/C (second compound 1 µM, first compound 0.001 µM): 114% | viability, T/C (second compound 1 µM, first compound 0.00316 µM): 103% | viability, T/C (second compound 1 µM, first compound 0.01 µM): 107% | viability, T/C (second compound 1 µM, first compound 0.0316 µM): 132% | viability, T/C (second compound 1 µM, first compound 0.1 µM): 106% | viability, T/C (second compound 3.16 µM, first compound 0.000316 µM): 99.3% | viability, T/C (second compound 3.16 µM, first compound 0.001 µM): 101% | viability, T/C (second compound 3.16 µM, first compound 0.00316 µM): 119% | viability, T/C (second compound 3.16 µM, first compound 0.01 µM): 118% | viability, T/C (second compound 3.16 µM, first compound 0.0316 µM): 123% | viability, T/C (second compound 3.16 µM, first compound 0.1 µM): 104% | viability, T/C (second compound 10 µM, first compound 0.000316 µM): 105% | viability, T/C (second compound 10 µM, first compound 0.001 µM): 99.6% | viability, T/C (second compound 10 µM, first compound 0.00316 µM): 113% | viability, T/C (second compound 10 µM, first compound 0.01 µM): 137% | viability, T/C (second compound 10 µM, first compound 0.0316 µM): 133% | viability, T/C (second compound 10 µM, first compound 0.1 µM): 118%
